Assay [1] in a line: P. falciparum late gametocyte killing, dose response, luminescence (AID 1117278).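 Also: gametocytes exposed to compound for 24 hours.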 In kind it is functional, cell-based.
Assay [2] in a line: Jurkat T cell cytotoxicity, dose response, cytotoxicity control for P. falciparum gametocyte viability project, luminescence (AID 1117277).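 Also: potency reflects loss of cellular ATP meaning fewer viable cells.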 It counts as functional, cell-based.
A short description of assay [3]: NIH-3T3 fibroblast cytotoxicity, dose response, cytotoxicity control, cell-based, fluorescence, Alamar Blue, secondary assay (AID 2327).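 Also: NIH-3T3 mouse fibroblasts cultured with fluconazole at 8 µg/mL.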 It counts as functional. A general note: Alamar Blue is a resazurin reagent that responds to reducing activity.
Assay [4] addresses T1, Aminopeptidase N (Plasmodium falciparum FcB1/Columbia, UniProt O96935).
T1 sequence (O96935 whole entry): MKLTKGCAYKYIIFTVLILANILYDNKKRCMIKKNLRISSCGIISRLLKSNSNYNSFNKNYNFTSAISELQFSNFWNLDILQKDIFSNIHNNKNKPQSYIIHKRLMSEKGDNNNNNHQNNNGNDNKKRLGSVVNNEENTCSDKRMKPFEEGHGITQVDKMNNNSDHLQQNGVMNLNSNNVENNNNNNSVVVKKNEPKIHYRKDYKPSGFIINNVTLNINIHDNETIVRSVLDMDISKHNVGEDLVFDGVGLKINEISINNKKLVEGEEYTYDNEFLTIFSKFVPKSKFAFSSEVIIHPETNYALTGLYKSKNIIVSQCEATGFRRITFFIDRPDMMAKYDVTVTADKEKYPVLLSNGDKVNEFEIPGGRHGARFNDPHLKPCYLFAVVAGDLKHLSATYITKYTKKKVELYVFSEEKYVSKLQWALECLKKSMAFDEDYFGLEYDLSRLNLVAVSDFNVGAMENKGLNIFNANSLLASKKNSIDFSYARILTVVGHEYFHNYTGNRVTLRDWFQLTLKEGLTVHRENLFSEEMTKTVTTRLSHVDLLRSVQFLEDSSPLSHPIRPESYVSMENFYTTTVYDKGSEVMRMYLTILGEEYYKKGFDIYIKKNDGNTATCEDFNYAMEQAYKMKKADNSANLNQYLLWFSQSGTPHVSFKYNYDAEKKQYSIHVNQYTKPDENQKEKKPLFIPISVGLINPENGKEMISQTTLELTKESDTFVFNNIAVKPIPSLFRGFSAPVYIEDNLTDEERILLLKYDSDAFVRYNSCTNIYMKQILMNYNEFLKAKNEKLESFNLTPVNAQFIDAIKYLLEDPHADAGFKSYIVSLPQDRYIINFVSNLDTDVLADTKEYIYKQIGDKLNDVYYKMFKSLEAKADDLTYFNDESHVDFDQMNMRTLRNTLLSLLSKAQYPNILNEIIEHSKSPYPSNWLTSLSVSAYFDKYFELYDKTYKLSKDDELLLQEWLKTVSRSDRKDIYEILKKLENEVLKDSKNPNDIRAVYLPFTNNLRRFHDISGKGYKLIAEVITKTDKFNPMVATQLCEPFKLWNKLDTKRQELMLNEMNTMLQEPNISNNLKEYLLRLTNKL
Put plainly: P. falciparum M1AAP inhibitors, biochemical, fluorogenic H-Leu-NHMec substrate, 1536-well (AID 1445). Further details: species or system Plasmodium falciparum 3D7, 3D7.

Assay [5] is described as follows: C. albicans growth with fluconazole, confirmation, fluorescence, retest (AID 2467). It counts as functional, cell-based.
Assay [6] deals with INS1. The experiment in a line: beta cell apoptosis inhibitors, cytokine rescue, dose response, luminescence, retest (AID 449756).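 Also: cell death triggered by IL-1 beta plus TNF-alpha plus IFN-gamma mixture; protective hits raise ATP signal compared with cytokine alone wells.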 In kind it is functional, cell-based. As to conditions: Rattus norvegicus.
Assay [7] in a line: HepG2 cell cytotoxicity, dose response, cytotoxicity control, ATP luminescence, cherry-pick, activator set 2 (AID 1053143). In kind it is functional, cell-based.
Assay [8] addresses Endoplasmic reticulum aminopeptidase 1 (Homo sapiens, UniProt Q9NZ08). The experiment in a line: ERAP1 aminopeptidase inhibitors, dose response, biochemical, cherry-pick, set 2, plate reader (AID 743314).
Assay [9] has as its target T2, Heat shock factor protein 1 (Mus musculus, UniProt P38532).
T2 sequence (P38532 whole entry): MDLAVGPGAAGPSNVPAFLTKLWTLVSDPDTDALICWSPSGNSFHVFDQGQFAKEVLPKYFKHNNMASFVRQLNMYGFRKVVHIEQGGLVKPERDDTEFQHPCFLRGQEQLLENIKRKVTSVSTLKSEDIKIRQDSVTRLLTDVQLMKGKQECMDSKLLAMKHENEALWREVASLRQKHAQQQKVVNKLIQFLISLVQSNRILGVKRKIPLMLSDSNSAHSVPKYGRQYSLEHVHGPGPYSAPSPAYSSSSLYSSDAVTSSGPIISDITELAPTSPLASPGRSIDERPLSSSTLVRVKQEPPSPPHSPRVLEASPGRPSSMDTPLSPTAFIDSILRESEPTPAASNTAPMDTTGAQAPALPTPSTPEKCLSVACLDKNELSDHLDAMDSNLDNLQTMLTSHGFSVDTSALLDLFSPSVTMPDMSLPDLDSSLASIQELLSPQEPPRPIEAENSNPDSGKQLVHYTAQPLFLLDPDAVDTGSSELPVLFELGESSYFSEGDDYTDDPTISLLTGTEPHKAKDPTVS
The experiment in a line: inhibition of MG132-induced HSE-luciferase signal, confirmation, cell-based, NIH3T3, luminescence, dose retest (AID 2382).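 Also: NIH3T3 fibroblasts with HSF1-driven luciferase reporter stressed by proteasome inhibitor MG132; luminescence from HSF1-driven luciferase expression after 8 hours of MG132 stress.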 In kind it is functional.

Assay [10] can be described thus: Luminescence Cell-Based Dose Retest to Confirm Inhibitors of Cancer Stem Cells. [Related pubchem assays (depositor defined):AID2717, AID2721]. In kind it is functional, Homo sapiens. As to conditions: Homo sapiens.
Assay [11] has as its target T3, Microphthalmia-associated transcription factor (Homo sapiens, UniProt O75030).
T3 sequence (O75030 whole entry): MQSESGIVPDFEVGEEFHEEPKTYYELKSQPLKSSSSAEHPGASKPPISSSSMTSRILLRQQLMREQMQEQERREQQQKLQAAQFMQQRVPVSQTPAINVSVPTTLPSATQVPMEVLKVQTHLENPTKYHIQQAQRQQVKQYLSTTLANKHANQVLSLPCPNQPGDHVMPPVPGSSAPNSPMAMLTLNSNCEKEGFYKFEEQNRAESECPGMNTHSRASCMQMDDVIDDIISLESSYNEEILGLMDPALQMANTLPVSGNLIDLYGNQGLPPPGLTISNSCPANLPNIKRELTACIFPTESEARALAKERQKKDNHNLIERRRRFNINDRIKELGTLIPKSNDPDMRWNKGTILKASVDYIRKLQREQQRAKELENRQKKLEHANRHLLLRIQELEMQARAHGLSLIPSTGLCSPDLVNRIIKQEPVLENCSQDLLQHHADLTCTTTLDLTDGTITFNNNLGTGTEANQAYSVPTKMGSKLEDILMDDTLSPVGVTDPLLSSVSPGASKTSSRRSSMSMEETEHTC
Put plainly: TRPM1 promoter luciferase signal decrease, dose response, MITF inhibitor project, cell-based, SK-MEL-5, cherry-picked, set 3 (AID 493073).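 Also: SK-MEL-5 melanoma cells with luciferase driven by the MITF target TRPM1 promoter.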 It counts as functional.

Assay [12] can be described thus: Shn3 3'UTR reporter inhibitors, dose response, cell-based, Clone20 osteoblasts, firefly luciferase, cherry-picked (AID 624132).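 Also: firefly luciferase luminescence from reporter carrying the Shn3 3'UTR in osteoblasts.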 In kind it is functional.
Assay [13] is described as follows: HepG2 cell cytotoxicity, dose response, cytotoxicity control for Shn3 inhibitor project, CellTiter-Glo, cherry-picked (AID 624134). It counts as functional, cell-based. A general note: In ATP-based viability assays light output follows the ATP content of the culture.
A short description of assay [14]: control 3'UTR Renilla luciferase suppression, dose response, counter-screen for Shn3 inhibitor project, cell-based, Clone20-Shn3RL, cherry-picked (AID 624133). In kind it is functional. In general terms: A counterscreen serves to expose hits that act by an unwanted route or on another target.
Assay [15] deals with Paired box protein Pax-8 (Homo sapiens, UniProt Q06710). Put plainly: inhibitors of PAX8-driven TPO luciferase reporter, dose response, RMG-I cells, cherry-pick (AID 687027).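 Also: luciferase reporter driven by Pax8 target thyroperoxidase promoter measured by SteadyGlo luminescence.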 In kind it is functional, cell-based.
The nature of assay [16]: A549 cell cytotoxicity, dose response, cytotoxicity control, plate reader, cherry-pick, antagonist series (AID 743412). It counts as functional, cell-based.
A short description of assay [17]: HepG2 cell cytotoxicity, dose response, cytotoxicity control, plate reader, cherry-pick, antagonist series (AID 743416). It counts as functional, cell-based.
Assay [18] in a line: LGR2 antagonists, dose response, cell-based, HEK293, CRE-luciferase reporter, cherry pick, set 2 (AID 743343).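 Also: transfected cells were stimulated with diluted bursicon conditioned medium after compound addition.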 In kind it is functional.
Assay [19] in a line: non-specific cell cytotoxicity, dose response, cytotoxicity control for PAX8 inhibitor project, plate reader, dry powder samples (AID 743021). In kind it is functional, cell-based.
Assay [20] in a line: MC4R antagonists, dose response, counter-screen for LGR2 antagonist project, cell-based, plate reader, cherry pick (AID 743444).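 Also: transfected HEK 293 cells stimulated with alpha-MSH peptide; potency of inhibitors of the alpha-MSH evoked signal.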 In kind it is functional.
Assay [21] is described as follows: HEK293 cell cytotoxicity, dose response, cytotoxicity control, plate reader, cherry-picked samples (AID 743446). In kind it is functional, cell-based.
Assay [22] addresses Prothrombin (Homo sapiens, UniProt P00734). Put plainly: Thrombin 1536 HTS Dose Response Confirmation. [Related pubchem assays: 1046 (Thrombin 1536 HTS; hits were confirmed in this assay)]. It counts as functional.
The nature of assay [23]: Artemis endonuclease inhibitor potency, dose response, biochemical, fluorescence intensity (AID 720701).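 Also: Artemis endonuclease enzyme.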 It counts as functional.
Assay [24] in a line: Luminescence-based cell-based high throughput dose response assay to identify activators of the DAF-12 from the parasite S. stercoralis (ssDAF-12). It counts as functional.
A short description of assay [25]: IOSE-T80 ovarian epithelial cell cytotoxicity, dose response, cytotoxicity control for PAX8 inhibitor project, plate reader, dry powder samples (AID 743045). In kind it is functional, cell-based.
A short description of assay [26]: NIH:OVCAR-3 ovarian cancer cell cytotoxicity, dose response, PAX8 inhibitor project, plate reader, dry powder samples (AID 743044). It counts as functional, cell-based.
Assay [27] is described as follows: IGROV1 ovarian cancer cell cytotoxicity, dose response, PAX8 inhibitor project, plate reader, dry powder samples (AID 743043). In kind it is functional, cell-based. As to conditions: IGROV-1.
A short description of assay [28]: cytotoxicity in OVCAR8 ovarian cancer cells, dose response, PAX8 project, cell-based, plate reader, dry powder samples (AID 743197). As to conditions: OVCAR-8. In kind it is functional.

Activity calls are given as the source filed them.

Sequence of Paired box protein Pax-8 (Q06710 whole entry): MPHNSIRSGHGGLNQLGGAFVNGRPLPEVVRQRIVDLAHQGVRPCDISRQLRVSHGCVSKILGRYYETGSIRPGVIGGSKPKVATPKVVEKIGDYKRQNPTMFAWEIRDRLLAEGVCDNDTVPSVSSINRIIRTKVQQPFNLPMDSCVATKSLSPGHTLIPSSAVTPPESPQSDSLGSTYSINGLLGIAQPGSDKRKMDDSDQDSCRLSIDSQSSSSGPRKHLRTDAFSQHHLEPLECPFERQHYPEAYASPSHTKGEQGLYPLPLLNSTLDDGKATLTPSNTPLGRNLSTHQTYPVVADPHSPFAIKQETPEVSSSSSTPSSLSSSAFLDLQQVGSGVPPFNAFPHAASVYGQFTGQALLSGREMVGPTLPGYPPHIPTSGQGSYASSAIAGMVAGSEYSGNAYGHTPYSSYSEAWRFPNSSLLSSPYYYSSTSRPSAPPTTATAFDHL
Sequence of Endoplasmic reticulum aminopeptidase 1 (Q9NZ08 whole entry): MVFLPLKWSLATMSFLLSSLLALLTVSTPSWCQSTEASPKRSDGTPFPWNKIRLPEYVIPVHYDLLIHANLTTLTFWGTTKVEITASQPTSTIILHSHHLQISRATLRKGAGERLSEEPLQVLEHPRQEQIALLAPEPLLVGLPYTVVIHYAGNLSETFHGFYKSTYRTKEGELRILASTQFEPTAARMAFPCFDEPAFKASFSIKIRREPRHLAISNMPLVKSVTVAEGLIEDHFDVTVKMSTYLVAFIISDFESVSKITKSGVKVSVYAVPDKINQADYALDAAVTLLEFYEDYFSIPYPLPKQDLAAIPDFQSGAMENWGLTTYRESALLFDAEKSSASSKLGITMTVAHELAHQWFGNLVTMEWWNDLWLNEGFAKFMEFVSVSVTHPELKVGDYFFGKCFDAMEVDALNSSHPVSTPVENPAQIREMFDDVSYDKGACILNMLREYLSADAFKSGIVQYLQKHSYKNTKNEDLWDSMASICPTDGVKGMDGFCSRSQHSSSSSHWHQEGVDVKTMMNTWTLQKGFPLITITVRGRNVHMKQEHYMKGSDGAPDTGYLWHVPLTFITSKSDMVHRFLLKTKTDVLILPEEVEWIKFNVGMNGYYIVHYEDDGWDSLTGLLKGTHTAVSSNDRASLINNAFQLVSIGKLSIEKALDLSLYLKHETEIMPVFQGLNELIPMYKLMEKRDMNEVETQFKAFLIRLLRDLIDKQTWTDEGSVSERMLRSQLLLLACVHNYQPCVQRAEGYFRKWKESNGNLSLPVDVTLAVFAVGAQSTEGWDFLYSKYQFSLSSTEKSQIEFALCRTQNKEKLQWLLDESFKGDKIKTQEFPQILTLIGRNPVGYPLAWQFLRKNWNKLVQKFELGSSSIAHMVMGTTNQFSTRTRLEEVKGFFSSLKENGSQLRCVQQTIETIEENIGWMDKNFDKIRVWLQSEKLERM

Take `O=C(Cn1c(C(F)(F)F)nc2ccccc21)Nc1ccccc1C(=O)O`: the IC50 in assay [1] is > 109 µM (inactive); in assay [2], > 83.3 µM (inactive).

Turning to `O=C(Oc1c(CN2CCOCC2)cc(Cl)c2cccnc12)c1cccs1`, the EC50 was > 160 µM (inactive) in assay [3] and 2.63 µM (active) in assay [5]. Further, the IC50 in assay [4] was 72.3 µM (active). The AC50 in assay [6] was 4.67 µM (active); in assay [7], 26 µM (active).

`COc1ccc(OC)c(S(=O)(=O)Nc2c(C)cccc2C)c1`: the IC50 in [1] was > 109 µM (inactive); in assay [2] it was > 83.3 µM (inactive).

Regarding `Cc1c(Cc2ccccc2)c(=O)oc2cc(O)ccc12`, the AC50 in assay [8] was 12.6 µM (active).

As to `O=C(Nc1ccc2nc3n(c(=O)c2c1)CCCCC3)c1cc([N+](=O)[O-])ccc1F`, the concentration for a half-maximal effect (EC50) in assay [9] is > 195 µM (not active). The AC50 in assay [10] is 5.51 µM (active); in assay [11] it was 10.7 µM (active); in assay [12] it was 14.1 µM (active); in assay [13] it was 42.2 µM (active); in assay [14], 9.99 µM (active); in assay [15], 14.3 µM (active). For the same compound, the AC50 in assay [16] was 17.5 µM (active); in [17], 18.3 µM (active); in assay [18], 6.52 µM (active); in assay [19], 42.6 µM (active); in [20] it was 11.5 µM (active); in assay [21], 14.7 µM (active).

As for `COc1ccccc1C(=O)n1nc(-c2ccccc2)nc1NCc1ccco1`, in [22], the half-maximal inhibitory concentration (IC50) is 0.223 µM (active).

Turning to `COc1cccc(OC)c1-c1nn2c(-c3cc(-c4ccccc4)[nH]n3)nnc2s1`, the IC50 in assay [23] was 1.96 µM (active).

With `CC(C)(C)C1CCC(=NN=C(S)Nc2cccnc2)CC1` (configuration not stated), in assay [24], the IC50 is > 67.5 µM (inactive).

Turning to `COc1ccc(S(=O)(=O)N(C)C[C@@H]2Oc3ccc(NC(=O)Nc4ccc(C(F)(F)F)cc4)cc3CC(=O)N([C@H](C)CO)C[C@@H]2C)cc1`, the AC50 in assay [15] is 4.64 µM (active); in assay [25], 13.8 µM (active); in assay [26], 6.36 µM (active); in [27] it was 16.8 µM (active); in assay [28], 22.1 µM (active).

For the compound `COc1ccc(-c2nn(-c3ccccc3)cc2C(=O)Nc2nc(CC(C)=O)ns2)cc1`, the IC50 in assay [23] is > 20 µM (inactive).

The IC50 is the midpoint of a concentration-inhibition curve. A word on the EC50: it is the concentration giving half of the maximal effect. The AC50 is the midpoint of the concentration-response curve, whichever way the signal moves.

The record behind these values is ChEMBL document CHEMBL1201862, “PubChem BioAssay data set” (2004).
